The numbers were not newly measured in patent US11980189B2, “Agricultural formulations, uses thereof and processes for preparation thereof” (Valent U.S.A. LLC, priority 2020, dated 2024), which cites them from elsewhere.

Turning to `COCC(=O)N(c1c(C)cccc1C)C(C)C(=O)OC` (stereo not shown) [metalaxyl, Metalaxyl], the partial water solubility is 8,400 parts per million.
